One molecule from publication PMC7581728, “Sapitinib Reverses Anticancer Drug Resistance in Colon Cancer Cells Overexpressing the ABCB1 Transporter” (Frontiers in Oncology, 2020) can be followed below.

The structures appear in SMILES notation.

For this experiment, the target named is T1, ABCB1 (Homo sapiens, UniProt P08183).
T1 construct: ABCB1 transporter in membrane vesicles of High Five insect cells
Put plainly: vanadate-sensitive ATPase stimulation in ABCB1 membrane vesicles ([…] maximum); also raised [3H]-paclitaxel accumulation in SW620/Ad300 cells. Format: biochemical.

T1 sequence (P08183 whole entry): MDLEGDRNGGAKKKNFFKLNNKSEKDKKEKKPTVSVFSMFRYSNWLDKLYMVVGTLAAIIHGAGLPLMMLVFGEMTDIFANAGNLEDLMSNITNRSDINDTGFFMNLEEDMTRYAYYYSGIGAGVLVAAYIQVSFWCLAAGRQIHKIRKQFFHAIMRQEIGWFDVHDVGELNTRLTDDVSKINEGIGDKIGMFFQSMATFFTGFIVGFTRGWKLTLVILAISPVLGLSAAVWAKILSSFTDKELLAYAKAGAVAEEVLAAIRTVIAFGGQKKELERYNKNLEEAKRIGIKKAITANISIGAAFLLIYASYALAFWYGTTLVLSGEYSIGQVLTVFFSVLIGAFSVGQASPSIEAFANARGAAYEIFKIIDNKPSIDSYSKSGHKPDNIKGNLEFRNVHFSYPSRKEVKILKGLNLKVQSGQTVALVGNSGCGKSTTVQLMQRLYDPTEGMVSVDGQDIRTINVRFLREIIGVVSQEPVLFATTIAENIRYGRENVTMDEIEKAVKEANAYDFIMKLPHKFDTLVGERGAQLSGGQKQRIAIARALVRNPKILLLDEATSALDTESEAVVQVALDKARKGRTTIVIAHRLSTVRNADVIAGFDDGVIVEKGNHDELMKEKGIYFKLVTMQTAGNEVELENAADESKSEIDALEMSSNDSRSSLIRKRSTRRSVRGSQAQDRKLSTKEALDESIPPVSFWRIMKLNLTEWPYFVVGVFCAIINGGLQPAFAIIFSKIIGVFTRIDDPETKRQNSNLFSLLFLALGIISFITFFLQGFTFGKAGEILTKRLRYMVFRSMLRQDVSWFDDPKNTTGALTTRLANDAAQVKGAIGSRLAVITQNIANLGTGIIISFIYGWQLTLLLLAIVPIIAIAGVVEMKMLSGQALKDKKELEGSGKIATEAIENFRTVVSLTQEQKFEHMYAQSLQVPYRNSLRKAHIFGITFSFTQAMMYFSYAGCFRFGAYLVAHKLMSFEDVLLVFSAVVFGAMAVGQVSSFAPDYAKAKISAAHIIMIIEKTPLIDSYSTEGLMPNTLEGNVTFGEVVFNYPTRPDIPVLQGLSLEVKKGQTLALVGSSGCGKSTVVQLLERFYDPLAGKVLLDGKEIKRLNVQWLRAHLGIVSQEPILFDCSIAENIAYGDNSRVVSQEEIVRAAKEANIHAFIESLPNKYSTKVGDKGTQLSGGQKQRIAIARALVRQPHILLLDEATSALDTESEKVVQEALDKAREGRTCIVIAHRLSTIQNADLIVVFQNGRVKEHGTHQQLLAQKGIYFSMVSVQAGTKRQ

Molecule `CNC(=O)CN1CCC(Oc2cc3c(Nc4cccc(Cl)c4F)ncnc3cc2OC)CC1` [sapitinib] had a concentration for a half-maximal effect (EC50) of 5.3 µM.
